# Publication PMC11911254 (Pharmacological Reports, 2025)
# What was measured:
# [1] = cited from earlier work
# [2] = design: method as in PMID 7288602; settings: rats; single dose of 15 mg/kg; cited from earlier work
# [3] = Concentration of paracetamol and its metabolites in plasma, CSF and brain cortex by LC-MS/MS; settings: for Concentration in CSF / Concentration in brain / Concentration in plasma: E19 rats; for Concentration in CSF / Concentration in brain / Concentration in plasma / concentration at 30 min: median (IQR); for concentration at 30 min: both, Sprague Dawley, rat, intraperitoneal, P4 rats
# Method: Drug injection protocol is illustrated in Fig. 1.
# Male and female postnatal P4 pups and 7–8 week-old non-pregnant females were used. […] In combination therapy experiments, this dose was accompanied by one of the 7 other drugs (Table 1). For all experiments, animals were terminally anesthetized 30 min after the drug injection using inhaled isoflurane (IsoFlo 100% w/w, Abbott Laboratories), and blood, CSF, and brain samples were collected. Blood was collected directly from the right cardiac ventricle, CSF from the cisterna magna, and cortical brain samples from the frontal/parietal lobes dorsal to the lateral ventricles as described previously.
# Pregnant E19 dams were anesthetized with ip urethane injection (25% w/v urethane, Sigma, 1 ml/100 g body weight) and placed on a 39 °C heating pad in the supine position. An endotracheal catheter was inserted to maintain a clear airway. Catheters were inserted into the femoral vein and artery for iv drug administration and arterial blood sampling respectively. The cannula was flushed with 0.5 ml of heparinized saline (Hospira Inc, 5,000 units/ml) after drug administration and following each arterial blood sample. Following drug administration to the dams, fetuses were exteriorized and serially collected starting at 30 min post-maternal injection. […] At collection, the viability of each fetus was assessed (presence of a heartbeat, the colour of the umbilical vessels) and blood, CSF, and brain samples were taken along with a time-matched maternal blood sample from the femoral artery. At the end of the experiment, a final maternal blood sample was taken directly from the left cardiac ventricle, and CSF and brain samples were collected.
# This method has been described previously for valproate, lamotrigine, and olanzapine and was applied in the present study. Simultaneous quantification was performed for all compounds in plasma, brain, and CSF samples following the addition of respective stable isotope-labeled internal standards.
# Linear response range was determined in untreated control rat plasma for each compound at 0.1, 1, 10, 50, 100, 200, 400, and 800 µg/ml.
# [4] = maternal iv paracetamol 15 mg/kg + cimetidine 11 mg/kg (PARA+CIM, n=10)
# [5] = maternal iv paracetamol 15 mg/kg + digoxin 0.03 mg/kg (PARA+DIG, n=9)
# [6] = maternal iv paracetamol 15 mg/kg + lamotrigine 6 mg/kg (PARA+LTG, n=10)
# [7] = maternal iv paracetamol 15 mg/kg + olanzapine 0.15 mg/kg (PARA+OLZ, n=10), all values if <3 detected
# [8] = maternal iv paracetamol 15 mg/kg + valproate 30 mg/kg (PARA+VPA, n=10), all values if <3 detected
# [9] = maternal iv paracetamol 15 mg/kg monotherapy (PARA, n=10)
compound,measurement,setting,value
"CC(=O)Nc1ccc(O)cc1 [Paracetamol, reference compound]",fraction metabolized by glucuronidation via UGT enzymes,"[1]; adult humans, liver",55–60%
same,fraction metabolized by sulfation via SULT enzymes,"[1]; adult humans, liver",20–30%
same,fraction excreted unchanged in urine,[1]; adult humans,around 4%
same,fraction turned into NAPQI via cytochrome P450 enzymes,[1]; adult humans,Up to 10%
same,proportion of paracetamol's metabolism by the glutathione metabolic pathway,[1],< 10%
same,half-life,[2],around 16 min
same,Concentration in CSF,[3]; [4],7.2 (1.7) µg/ml
same,Concentration in brain,[3]; [4],10.2 (5.7) µg/ml
same,Concentration in plasma,[3]; [4],7.6 (2.5) µg/ml
same,Concentration in CSF,[3]; [5],6.5 (2.2) µg/ml
same,Concentration in brain,[3]; [5],6.6 (3.0) µg/ml
same,Concentration in plasma,[3]; [5],5.8 (2.2) µg/ml
same,Concentration in CSF,[3]; [6],6.3 (3.4) µg/ml
same,Concentration in brain,[3]; [6],8 (2.6) µg/ml
same,Concentration in plasma,[3]; [6],6.2 (3.7) µg/ml
same,Concentration in plasma,"[3]; maternal iv paracetamol 15 mg/kg + olanzapine 0.15 mg/kg (PARA+OLZ, n=10)",4.1 (3.7) µg/ml
same,Concentration in CSF,[3]; [7],4.7 (4.0) µg/ml
same,Concentration in brain,[3]; [7],8.7 (3.9) µg/ml
same,Concentration in plasma,"[3]; maternal iv paracetamol 15 mg/kg + olanzapine 0.15 mg/kg (PARA+OLZ, n=10), listed as paracetamol",4.1 µg/mL
same,Concentration in CSF,"[3]; maternal iv paracetamol 15 mg/kg + valproate 30 mg/kg (PARA+VPA, n=10)",5.9 (2.1) µg/ml
same,Concentration in brain,[3]; [8],6.9 (2.1) µg/ml
same,Concentration in plasma,[3]; [8],6.0 (2.5) µg/ml
same,Concentration in CSF,[3]; [9],8.0 (3.2) µg/ml
same,Concentration in brain,[3]; [9],9.3 (5.0) µg/ml
same,Concentration in plasma,[3]; [9],7.5 (2.9) µg/ml
same,Concentration in plasma,"[3]; maternal iv paracetamol 15 mg/kg monotherapy (PARA, n=10), listed as paracetamol",7.5 µg/mL
same,change in plasma concentration following combination therapy,"[3]; adults, any of the drugs investigated, Kruskal-Wallis test",no significant changes
same,concentration at 30 min,"[3]; CSF, 15 mg/kg, Concentration in CSF, 30 min after ip paracetamol 15 mg/kg monotherapy (PARA, n=4)",7000 ng/mL
same,concentration at 30 min,"[3]; CSF, Concentration in CSF, 30 min after ip paracetamol 15 mg/kg + cimetidine 11 mg/kg (PARA+CIM, n=4)",6200 ng/mL
same,concentration at 30 min,"[3]; CSF, Concentration in CSF, 30 min after ip paracetamol 15 mg/kg + digoxin 0.03 mg/kg (PARA+DIG, n=4)",6300 ng/mL
same,concentration at 30 min,"[3]; CSF, Concentration in CSF, 30 min after ip paracetamol 15 mg/kg + fluvoxamine 1.5 mg/kg (PARA+FLX, n=4)",9400 ng/mL
same,concentration at 30 min,"[3]; CSF, Concentration in CSF, 30 min after ip paracetamol 15 mg/kg + lamotrigine 6 mg/kg (PARA+LTG, n=5)",7200 ng/mL
same,concentration at 30 min,"[3]; CSF, Concentration in CSF, 30 min after ip paracetamol 15 mg/kg + lithium 3.2 mg/kg (PARA+Li, n=4)",4700 ng/mL
same,concentration at 30 min,"[3]; CSF, Concentration in CSF, 30 min after ip paracetamol 15 mg/kg + olanzapine 0.15 mg/kg (PARA+OLZ, n=4)",5300 ng/mL
same,concentration at 30 min,"[3]; CSF, Concentration in CSF, 30 min after ip paracetamol 15 mg/kg + valproate 30 mg/kg (PARA+VPA, n=4)",6400 ng/mL
same,concentration at 30 min,"[3]; brain cortex, 15 mg/kg, Concentration in brain, 30 min after ip paracetamol 15 mg/kg monotherapy (PARA, n=4)",8900 ng/mL
